Measurements taken from patent publication US10723723B2, “Substituted bicycle heterocyclic derivatives useful as ROMK channel inhibitors” (BRISTOL-MYERS SQUIBB COMPANY, priority 2016, dated 2020).

How the values were obtained:
[1] = molecular target: hROMK (human Kir1.1) (Homo sapiens (Human), UniProt P48048); test: Thallium Flux Assay (FluxOR, CHO T-Rex hROMK stable cell line); type: cell-based; settings: CHO T-Rex hROMK cells, 10-point concentration response curve; read-out: Human ROMK TH Flux IC50
[2] = molecular target: hERG channels (Homo sapiens (Human), UniProt Q12809); test: hERG Manual Patch Clamp Assay (HEK 293 cells stably expressing hERG channels); type: cell-based; settings: human, HEK 293 cells stably expressing hERG channels, pH 7.4
Chain of hERG channels (Q12809 whole entry): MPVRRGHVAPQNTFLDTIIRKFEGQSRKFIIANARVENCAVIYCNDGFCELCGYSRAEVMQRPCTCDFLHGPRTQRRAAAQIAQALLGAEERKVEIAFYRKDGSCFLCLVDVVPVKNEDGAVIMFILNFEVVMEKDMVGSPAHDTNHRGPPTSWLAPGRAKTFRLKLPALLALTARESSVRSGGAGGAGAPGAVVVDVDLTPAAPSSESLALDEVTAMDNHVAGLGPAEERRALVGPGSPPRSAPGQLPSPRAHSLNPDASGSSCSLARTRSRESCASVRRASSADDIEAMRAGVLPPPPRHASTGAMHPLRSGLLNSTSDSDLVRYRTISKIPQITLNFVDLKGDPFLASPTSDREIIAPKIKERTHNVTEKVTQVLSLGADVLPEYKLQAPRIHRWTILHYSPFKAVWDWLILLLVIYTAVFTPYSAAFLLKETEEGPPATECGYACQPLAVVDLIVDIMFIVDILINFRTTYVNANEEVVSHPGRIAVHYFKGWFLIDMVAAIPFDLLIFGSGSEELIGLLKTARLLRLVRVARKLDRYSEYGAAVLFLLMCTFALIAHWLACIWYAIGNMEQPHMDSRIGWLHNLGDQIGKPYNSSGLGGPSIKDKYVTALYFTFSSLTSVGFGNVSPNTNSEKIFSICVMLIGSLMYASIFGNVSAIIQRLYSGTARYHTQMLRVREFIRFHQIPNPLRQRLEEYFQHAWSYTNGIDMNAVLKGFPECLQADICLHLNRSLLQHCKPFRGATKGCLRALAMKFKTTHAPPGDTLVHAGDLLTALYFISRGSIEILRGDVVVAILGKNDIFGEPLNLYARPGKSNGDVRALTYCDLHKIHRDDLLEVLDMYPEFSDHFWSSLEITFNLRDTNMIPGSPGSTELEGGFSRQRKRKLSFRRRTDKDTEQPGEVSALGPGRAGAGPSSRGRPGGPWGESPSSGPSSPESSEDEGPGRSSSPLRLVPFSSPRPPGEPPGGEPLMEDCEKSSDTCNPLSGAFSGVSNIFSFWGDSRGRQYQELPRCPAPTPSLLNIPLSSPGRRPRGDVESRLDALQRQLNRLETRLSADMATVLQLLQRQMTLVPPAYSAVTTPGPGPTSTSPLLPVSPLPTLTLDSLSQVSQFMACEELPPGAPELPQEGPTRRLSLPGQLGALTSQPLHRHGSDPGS

Chain of hROMK (human Kir1.1) (P48048 whole entry): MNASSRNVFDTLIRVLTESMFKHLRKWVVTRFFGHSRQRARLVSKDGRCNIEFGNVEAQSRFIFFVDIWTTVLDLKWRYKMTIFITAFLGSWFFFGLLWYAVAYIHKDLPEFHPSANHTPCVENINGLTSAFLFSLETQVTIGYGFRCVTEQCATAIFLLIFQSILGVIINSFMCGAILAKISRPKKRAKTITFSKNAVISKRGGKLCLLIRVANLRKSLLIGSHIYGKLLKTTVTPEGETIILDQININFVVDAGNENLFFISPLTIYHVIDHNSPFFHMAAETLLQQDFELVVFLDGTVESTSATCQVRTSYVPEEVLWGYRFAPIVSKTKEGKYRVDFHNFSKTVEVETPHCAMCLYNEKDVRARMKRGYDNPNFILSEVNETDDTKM

Q: Which results are given for `Cc1c([C@@H](O)CNCc2ccc(-n3ccnc3)nc2)ccc2c1COC2=O` [Example 109, (R)-5-(2-(((6-(1H-imidazol-1-yl)pyridin-3-yl)methyl)amino)-1-hydroxyethyl)-4-methylisobenzofuran-1(3H)-one]?
A: IC50 [1]: 40 nM; inhibition at 1 µM [2]: 12%

Q: Which IC50 [1] does the source give for `Cc1c([C@@H](O)CNCc2cnc(-n3cc(C#N)c(C(F)(F)F)n3)nc2)ccc2c1COC2=O` [Example 110, (R)-1-(5-(((2-hydroxy-2-(4-methyl-1-oxo-1,3-dihydroisobenzofuran-5-yl)ethyl)amino)methyl)pyrimidin-2-yl)-3-(trifluoromethyl)-1H-pyrazole-4-carbonitrile] here?
A: The IC50 was 42 nM.

Q: And the inhibition at 1 µM [2]?
A: The inhibition at 1 µM was 13%.

Q: What does the source list for `Cc1ncc(-c2ccc(CNC[C@H](O)c3ccc4c(c3C)COC4=O)cn2)s1` [Example 111, (R)-5-(1-hydroxy-2-(((6-(2-methylthiazol-5-yl)pyridin-3-yl)methyl)amino)ethyl)-4-methylisobenzofuran-1(3H)-one]?
A: IC50 [1]: 48 nM; inhibition at 1 µM [2]: 69%

Q: For `COc1cc(-n2cc(CNC[C@H](O)c3ccc4c(c3C)COC4=O)cn2)cc2c1oc(=O)n2C` [Example 112, (R)-5-(4-(((2-hydroxy-2-(4-methyl-1-oxo-1,3-di-Hydroisobenzofuran-5-yl)ethyl)amino)methyl)-1H-pyrazol-1-yl)-7-methoxy-3-mthylbenzo[d]oxazol-2(3H)-one], which IC50 [1] is on record?
A: The IC50 was 66 nM.

Q: What about the inhibition at 1 µM [2] of the same compound?
A: Its inhibition at 1 µM is 4.2%.

Q: How did the IC50 [1] turn out when `COc1nn(-c2ncc(CNC[C@H](O)c3ccc4c(c3C)COC4=O)cn2)cc1C#N` [Example 113, (R)-1-(5-(((2-hydroxy-2-(4-methyl-1-oxo-1,3-dihydroisobenzofuran-5-yl)ethyl)amino)methyl)pyrimidin-2-yl)-3-methoxy-1H-pyrazole-4-carbonitrile] was run?
A: The IC50 was 14 nM.

Q: What about the inhibition at 1 µM [2] of the same compound?
A: Its inhibition at 1 µM is 12%.

Q: With `CCc1nn(-c2ncc(CNC[C@H](O)c3ccc4c(c3C)COC4=O)cn2)cc1C#N` [Example 114, (R)-3-ethyl-1-(5-(((2-hydroxy-2-(4-methyl-1-oxo-1,3-dihydroisobenzofuran-5-yl)ethyl)amino)methyl)pyrimidin-2-yl)-1H-pyrazole-4-carbonitrile] as the compound, how does the IC50 [1] read?
A: The IC50 was 17 nM.

Q: What about the inhibition at 1 µM [2] of the same compound?
A: The inhibition at 1 µM was 25%.

Q: For `Cc1c([C@@H](O)CNCc2cnc(-n3cc(C#N)c(C4CC4)n3)nc2)ccc2c1COC2=O` [Example 117, (R)-3-cyclopropyl-1-(5-(((2-hydroxy-2-(4-methyl-1-oxo-1,3-dihydroisobenzofuran-5-yl)ethyl)amino)methyl)pyrimidin-2-yl)-1H-pyrazole-4-carbonitrile], which IC50 [1] is on record?
A: The IC50 was 24 nM.

Q: And the inhibition at 1 µM [2]?
A: Its inhibition at 1 µM is 32%.

Q: For `Cc1cn(-c2ccc(CNC[C@H](O)c3ccc4c(c3C)COC4=O)cn2)nn1` [Example 118, (R)-5-(1-hydroxy-2-(((6-(4-methyl-1H-1,2,3-triazol-1-yl)pyridin-3-yl)methyl)amino)ethyl)-4-methylisobenzofuran-1(3H)-one], which IC50 [1] is on record?
A: Its IC50 is 70 nM.

Q: And the inhibition at 1 µM [2]?
A: The inhibition at 1 µM was 16%.

Q: With `Cc1cc(-c2ncc(CNC[C@H](O)c3ccc4c(c3C)COC4=O)s2)ncc1C#N` [Example 128, (R)-6-(5-(((2-hydroxy-2-(4-methyl-1-oxo-1,3-dihydroisobenzofuran-5-yl)ethyl)amino)methyl)thiazol-2-yl)-4-methylnicotinonitrile] as the compound, how does the IC50 [1] read?
A: The IC50 was 6.6 nM.

Q: What about the inhibition at 1 µM [2] of the same compound?
A: The inhibition at 1 µM was 22%.

Q: What does the source list for `Cc1c([C@@H](O)CNCc2ccc(-n3cnc(C#N)c3)nc2)ccc2c1COC2=O` [Example 131, (R)-1-(5-(((2-hydroxy-2-(4-methyl-1-oxo-1,3-dihydroisobenzofuran-5-yl)ethyl)amino)methyl)pyridin-2-yl)-1H-imidazole-4-carbonitrile]?
A: IC50 [1]: 9.2 nM; inhibition at 1 µM [2]: 79%

Q: For `Cc1c([C@@H](O)CNCc2ccc(-n3cnc(C#N)n3)nc2)ccc2c1COC2=O` [Example 132, (R)-1-(5-(((2-hydroxy-2-(4-methyl-1-oxo-1,3-dihydroisobenzofuran-5-yl)ethyl)amino)methyl)pyridin-2-yl)-1H-1,2,4-triazole-3-carbonitrile], which IC50 [1] is on record?
A: Its IC50 is 26 nM.

Q: And the inhibition at 1 µM [2]?
A: The inhibition at 1 µM was 61%.

Q: What does the source list for `Cc1c([C@@H](O)CNCc2cccc(-c3ccc4oc(=O)n(C)c4c3)n2)ccc2c1COC2=O` [Example 133, (R)-5-(6-(((2-hydroxy-2-(4-methyl-1-oxo-1,3-dihydroisobenzofuran-5-yl)ethyl)amino)methyl)pyridin-2-yl)-3-methylbenzo[d]oxazol-2(3H)-one]?
A: IC50 [1]: 900 nM; inhibition at 1 µM [2]: 59%

Q: `COc1cc(-c2ncc(CNC[C@H](O)c3ccc4c(c3C)COC4=O)cn2)ncc1C#N` [Example 134, (R)-6-(5-(((2-hydroxy-2-(4-methyl-1-oxo-1,3-dihydroisobenzofuran-5-yl)ethyl)amino)methyl)pyrimidin-2-yl)-4-methoxynicotinonitrile] was tested. Which IC50 [1] did it give?
A: Its IC50 is 77 nM.

Q: What about the inhibition at 1 µM [2] of the same compound?
A: The inhibition at 1 µM was 3.8%.

Q: Which IC50 [1] does the source give for `CCN(Cc1ccc(-c2ccc3oc(=O)n(C)c3c2)nc1)C[C@H](O)c1ccc2c(c1C)COC2=O` [Example 135, (R)-5-(5-((ethyl(2-hydroxy-2-(4-methyl-1-oxo-1,3-dihydroisobenzofuran-5-yl)ethyl)amino)methyl)pyridin-2-yl)-3-methylbenzo[d]oxazol-2(3H)-one] here?
A: Its IC50 is 67 nM.

Q: What about the inhibition at 1 µM [2] of the same compound?
A: The inhibition at 1 µM was 51%.

Q: Which results are given for `CNc1cc(-n2cc(CNC[C@H](O)c3ccc4c(c3C)COC4=O)cn2)ncc1C#N` [Example 146, (R)-6-(4-(((2-hydroxy-2-(4-methyl-1-oxo-1,3-dihydroisobenzofuran-5-yl)ethyl)amino)methyl)-1H-pyrazol-1-yl)-4-(methylamino)nicotinonitrile]?
A: IC50 [1]: 25 nM; inhibition at 1 µM [2]: 61%

Q: For `CO[C@@H](CNCc1cnn(-c2cc(C)c(C#N)cn2)c1)c1ccc2c(c1C)COC2=O` [Example 147, (R)-6-(4-(((2-methoxy-2-(4-methyl-1-oxo-1,3-dihydroisobenzofuran-5-yl)ethyl)amino)methyl)-1H-pyrazol-1-yl)-4-methylnicotinonitrile], which IC50 [1] is on record?
A: Its IC50 is 37 nM.

Q: What about the inhibition at 1 µM [2] of the same compound?
A: The inhibition at 1 µM was 28%.

Q: Which results are given for `Cc1c([C@@H](O)CNCc2cnn(-c3cc(C4CC4)c(C#N)cn3)c2)ccc2c1COC2=O` [Example 148, (R)-4-cyclopropyl-6-(4-(((2-hydroxy-2-(4-methyl-1-oxo-1,3-dihydroisobenzofuran-5-yl)ethyl)amino)methyl)-1H-pyrazol-1-yl)nicotinonitrile]?
A: IC50 [1]: 200 nM; inhibition at 1 µM [2]: 72%

Q: `Cc1c([C@@H](O)CNCc2cn(-c3ccc4oc(=O)n(C)c4c3C)cn2)ccc2c1COC2=O` [Example 149, (R)-5-(4-(((2-hydroxy-2-(4-methyl-1-oxo-1,3-dihydroisobenzofuran-5-yl)ethyl)amino)methyl)-1H-imidazol-1-yl)-3,4-dimethylbenzo[d]oxazol-2(3H)-one] was tested. Which IC50 [1] did it give?
A: The IC50 was 84 nM.

Q: And the inhibition at 1 µM [2]?
A: The inhibition at 1 µM was 8.6%.

Q: For `COc1cc(-n2cc(CNC[C@H](O)c3ccc4c(c3OC)COC4=O)cn2)ncc1C#N` [Example 150, (R)-6-(4-(((2-hydroxy-2-(4-methoxy-1-oxo-1,3-dihydroisobenzofuran-5-yl)ethyl)amino)methyl)-1H-pyrazol-1-yl)-4-methoxynicotinonitrile], which IC50 [1] is on record?
A: The IC50 was 56 nM.

Q: And the inhibition at 1 µM [2]?
A: Its inhibition at 1 µM is 55%.

Q: Which IC50 [1] does the source give for `Cc1c([C@@H](O)CNCc2ccc(-n3ccc(C#N)n3)nc2)ccc2c1COC2=O` [Example 151, (R)-1-(5-(((2-hydroxy-2-(4-methyl-1-oxo-1,3-dihydroisobenzofuran-5-yl)ethyl)amino)methyl)pyridin-2-yl)-1H-pyrazole-3-carbonitrile] here?
A: Its IC50 is 29 nM.

Q: And the inhibition at 1 µM [2]?
A: Its inhibition at 1 µM is 45%.

Q: Which IC50 [1] does the source give for `CCOc1cc(-n2cc(CNC[C@H](O)c3ccc4c(c3C)COC4=O)cn2)ncc1C#N` [Example 152, (R)-4-ethoxy-6-(4-(((2-hydroxy-2-(4-methyl-1-oxo-1,3-dihydroisobenzofuran-5-yl)ethyl)amino)methyl)-1H-pyrazol-1-yl)nicotinonitrile] here?
A: Its IC50 is 6.2 nM.

Q: What about the inhibition at 1 µM [2] of the same compound?
A: Its inhibition at 1 µM is 64%.

Q: How did the IC50 [1] turn out when `CCOc1cc(-n2ncc(CNC[C@H](O)c3ccc4c(c3C)COC4=O)n2)ncc1C#N` [Example 155, (R)-4-ethoxy-6-(4-(((2-hydroxy-2-(4-methyl-1-oxo-1,3-dihydroisobenzofuran-5-yl)ethyl)amino)methyl)-2H-1,2,3-triazol-2-yl)nicotinonitrile] was run?
A: The IC50 was 31 nM.

Q: What about the inhibition at 1 µM [2] of the same compound?
A: The inhibition at 1 µM was 20%.

Q: With `CCOc1cc(-n2cc(CNC[C@H](O)c3ccc4c(c3C)COC4=O)nn2)ncc1C#N` [Example 156, (R)-4-ethoxy-6-(4-(((2-hydroxy-2-(4-methyl-1-oxo-1,3-dihydroisobenzofuran-5-yl)ethyl)amino)methyl)-1H-1,2,3-triazol-1-yl)nicotinonitrile] as the compound, how does the IC50 [1] read?
A: Its IC50 is 9.7 nM.

Q: And the inhibition at 1 µM [2]?
A: The inhibition at 1 µM was 15%.

Q: `Cc1cc(-n2cc(CNC[C@H](O)c3ccc4c(c3C)COC4=O)n(C)c2=O)ncc1C#N` [Example 159, (R)-6-(4-(((2-hydroxy-2-(4-methyl-1-oxo-1,3-dihydroisobenzofuran-5-yl)ethyl)amino)methyl)-3-methyl-2-oxo-2,3-dihydro-1H-imidazol-1-yl)-4-methylnicotinonitrile] was tested. Which IC50 [1] did it give?
A: The IC50 was 93 nM.

Q: And the inhibition at 1 µM [2]?
A: The inhibition at 1 µM was 6.5%.

Q: For `Cc1c([C@@H](O)CNCc2cnn(-c3ccc(C#N)cc3)c2)ccc2c1COC2=O` [Example 160, (R)-4-(4-(((2-hydroxy-2-(4-methyl-1-oxo-1,3-dihydroisobenzofuran-5-yl)ethyl)amino)methyl)-1H-pyrazol-1-yl)benzonitrile], which IC50 [1] is on record?
A: Its IC50 is 24 nM.

Q: What about the inhibition at 1 µM [2] of the same compound?
A: Its inhibition at 1 µM is 89%.

Q: What does the source list for `Cc1c([C@@H](O)CNCc2cnn(-c3cccc(C#N)c3)c2)ccc2c1COC2=O` [Example 161, (R)-3-(4-(((2-hydroxy-2-(4-methyl-1-oxo-1,3-dihydroisobenzofuran-5-yl)ethyl)amino)methyl)-1H-pyrazol-1-yl)benzonitrile]?
A: IC50 [1]: 77 nM; inhibition at 1 µM [2]: 48%

Q: How did the IC50 [1] turn out when `Cc1c([C@@H](O)CN(Cc2ccc(-c3ccc4oc(=O)n(C)c4c3)nc2)CC2CC2)ccc2c1COC2=O` [Example 162, (R)-5-(5-(((cyclopropylmethyl)(2-hydroxy-2-(4-methyl-1-oxo-1,3-dihydroisobenzofuran-5-yl)ethyl)amino)methyl)pyridin-2-yl)-3-methylbenzo[d]oxazol-2(3H)-one] was run?
A: Its IC50 is 110 nM.

Q: And the inhibition at 1 µM [2]?
A: The inhibition at 1 µM was 44%.
